Data from patent US5688640A, “Methods of screening of effectors of endothelin converting enzyme-1” (Board of Regents, The University of Texas System, priority 1994, dated 1997).

Assays:
ECE-1 [1] = biological target: T1, ECE-1 (Bos taurus, UniProt P42891); test: Reconstitution of ECE-1 activity by metal ions after EDTA stripping; format: biochemical, bovine; details: ZnCl2 300 μM after 30 μM EDTA
T1 construct: The entire coding regions from bovine ECE-1; made in house
T1 sequence (P42891 with tags, fused parts or gaps A87G/A695G limits assumed): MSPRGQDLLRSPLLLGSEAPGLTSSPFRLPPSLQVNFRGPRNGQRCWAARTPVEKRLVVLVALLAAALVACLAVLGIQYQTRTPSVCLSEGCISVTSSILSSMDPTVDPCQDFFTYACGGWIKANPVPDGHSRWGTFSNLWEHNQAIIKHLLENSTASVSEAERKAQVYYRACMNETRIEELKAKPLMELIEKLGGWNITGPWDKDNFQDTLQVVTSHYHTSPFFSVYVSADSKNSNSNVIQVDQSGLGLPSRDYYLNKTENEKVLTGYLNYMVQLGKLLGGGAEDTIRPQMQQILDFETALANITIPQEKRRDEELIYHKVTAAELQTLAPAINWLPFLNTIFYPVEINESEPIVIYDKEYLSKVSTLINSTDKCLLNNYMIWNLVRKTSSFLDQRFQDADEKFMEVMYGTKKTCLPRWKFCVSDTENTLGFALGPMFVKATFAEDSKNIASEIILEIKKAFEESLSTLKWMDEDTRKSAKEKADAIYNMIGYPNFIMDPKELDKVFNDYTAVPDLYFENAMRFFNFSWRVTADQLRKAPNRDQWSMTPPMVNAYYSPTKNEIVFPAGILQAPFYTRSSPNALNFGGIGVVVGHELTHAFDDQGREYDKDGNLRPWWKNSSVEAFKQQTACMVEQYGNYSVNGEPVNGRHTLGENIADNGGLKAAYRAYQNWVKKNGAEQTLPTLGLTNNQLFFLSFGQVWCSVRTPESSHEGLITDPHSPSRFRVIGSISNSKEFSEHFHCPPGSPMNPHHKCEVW
Description: FIG. 2D. […] After incubating on ice for 15 min, the designated concentrations of metal ions were added as chloride salt and ECE activity was measured.
(§1) Reaction mixtures for ECE assay (50 μl) contained 0.1M sodium phosphate buffer (pH 6.8), 0.5M NaCl, 0.1 μM human big ET-1(1-38) and enzyme fraction. For some studies, the reactions were preincubated at 37° C. with various protease inhibitors for 15 minutes prior to the addition of big ET-1. The reactions were incubated at 37° C. for 30 min in siliconized 0.5-ml microcentrifuge tubes. […] Duplicate assay wells were used for each enzyme reaction. Protein concentration was determined by the Bradford method (Bio-Rad) using IgG as standard.
Approximately 3,000-cm^2 confluent monolayers of cells (≈10^8 cells) were rinsed twice with ice-cold PBS. Cells were scraped off by a rubber policeman in ice-cold PBS, and collected by centrifugation. All subsequent procedures were performed at 4° C. Cells were resuspended in 10×volume of buffer B (20 mM Tris-HCl (pH 7.4)/20 μM pepstatin A/1 mM PMSF/1 MM pCMS/250 mM sucrose), and homogenized by a 30-ml Teflon homogenizer with the piston rotating at 300 r.p.m. […]

[2] = ET-1(1-20) and ET-1(1-22) relative to authentic ET-1(1-21); cited from earlier work
ECE-1 [3] = biological target: T1, ECE-1; test: Secretion of big and mature ET-1 by preproET-1-transfected CHO/ECE-1 cells (conversion of endogenous big ET-1); format: cell-based, bovine; details: preproET-1-transfected CHO/ECE-1 cells
Description: Transient transfection of the preproET-1 cDNA was performed by the DEAE-dextran method as described (Sakurai et al., 1990). Twelve hours after transfection, cells were refed with fresh medium with or without ECE inhibitors. The medium was conditioned for an additional 12 hours and directly subjected to EIA for mature and big ET-1 (Suzuki et al., 1990; Suzuki et al., 1989). For the Ca^2+ transient bioassay (see below), Phenol Red-free CHO-SFM medium (Gibco/BRL) without serum was used in order to avoid artefacts induced by serum and the dye.
To examine whether the expressed ECE-1 can convert big ET-1 in intact cells, paired cultures of CHO/ECE-1 cells and untransfected CHO cells were transiently transfected with the preproET-1 construct. After the transient transfection, the amounts of mature and big ET-1 secreted into the medium were measured by EIA. […] The functional authenticity of the immunoreactive mature peptide produced from the double-transfected cells was examined with a bioassay system that uses another line of CHO cells expressing human ETA receptors as reporter cells. […] The cells were loaded with the Ca^2+ indicator Fura-2/AM, and directly challenged with serum-free, Phenol Red-free culture supernatants from the aforementioned double-transfection protocols. […] Next the supernatants from the preproET-1-transfected CHO/ECE-1 cells were added, so that the final concentration of ET-1 as measured by EIA was ≈20 pM.

NEP = details: cited from earlier work
ECE-1 [4] = biological target: T1, ECE-1; test: pH profile of ECE-1 activity in solubilized CHO/ECE-1 membranes; format: biochemical, bovine
Description: FIG. 2C. pH profile of ECE-1 activity expressed in solubilized CHO/ECE-1 membranes.
as §1

[Cl-].[Cl-].[Zn+2] [ZnCl2]
reconstituted ECE activity, of the original levels (ECE-1 [1]): up to 110%

mature ET-1: 21-residue mature peptide; human ET-1(1-21) obtained from American Peptides
vasoconstrictor/biological activity (in words) [2]: the most potent vasoconstrictor substance known
concentration secreted in culture supernatant (ECE-1 [3]): 241 pM
degradation by NEP (in words) (NEP): rapidly degrades

B1: ECE-1: novel 758-amino acid polypeptide, bovine endothelin converting enzyme-1 (protein, UniProt P42891 1-754, looked up)
chain: MMSTYKRATLDEEDLVDSLSESDVYPNHLQVNFRGPRNGQRCWAARTPVEKRLVVLVALLAAALVACLAVLGIQYQTRTPSVCLSEACISVTSSILSSMDPTVDPCQDFFTYACGGWIKANPVPDGHSRWGTFSNLWEHNQAIIKHLLENSTASVSEAERKAQVYYRACMNETRIEELKAKPLMELIEKLGGWNITGPWDKDNFQDTLQVVTSHYHTSPFFSVYVSADSKNSNSNVIQVDQSGLGLPSRDYYLNKTENEKVLTGYLNYMVQLGKLLGGGAEDTIRPQMQQILDFETALANITIPQEKRRDEELIYHKVTAAELQTLAPAINWLPFLNTIFYPVEINESEPIVIYDKEYLSKVSTLINSTDKCLLNNYMIWNLVRKTSSFLDQRFQDADEKFMEVMYGTKKTCLPRWKFCVSDTENTLGFALGPMFVKATFAEDSKNIASEIILEIKKAFEESLSTLKWMDEDTRKSAKEKADAIYNMIGYPNFIMDPKELDKVFNDYTAVPDLYFENAMRFFNFSWRVTADQLRKAPNRDQWSMTPPMVNAYYSPTKNEIVFPAGILQAPFYTRSSPNALNFGGIGVVVGHELTHAFDDQGREYDKDGNLRPWWKNSSVEAFKQQTACMVEQYGNYSVNGEPVNGRHTLGENIADNGGLKAAYRAYQNWVKKNGAEQTLPTLGLTNNQLFFLSFAQVWCSVRTPESSHEGLITDPHSPSRFRVIGSISNSKEFSEHFHCPPGSPMNPHHKCEVW
modifications: full-length
optimal pH of ECE activity (ECE-1 [4]): 6.8
